Test results published in patent US20160250213A1, “FORMULATIONS OF AZAINDOLE COMPOUNDS” (priority 2013, published 2016).
Where two headings read alike, the source gives them in different places.

Columns and labels:
[1] = physchem; conditions: water, thermodynamic from solid
[2] = Hydrate formation of free base versus humidity / water activity; assay type: physicochemical; conditions: ambient temperature
[3] = for Sol. / Resulting Form: ambient temperature

For O=C(O)[C@H]1C2CCC(CC2)C1Nc1nc(-c2c[nH]c3ncc(F)cc23)ncc1F (stereo partly drawn) [Form A free base Compound (1)], the solubility thermodynamic at 2 weeks [1] was under 0.1 mg/mL, the “water activity where the hydrate form was observed” value [2] was “greater than 0.6” and the Sol. ([3]; solvent 1,1,2-Trichloroethane) was 1.0 mg/mL. For the same compound, the Sol. ([3]; solvent 1,2-Dichloroethane) was 0.4 mg/mL, the Sol. ([3]; solvent 1,2-Dimethoxyethane) was 114.0 mg/mL and the “Resulting Form” value ([3]; solvent 1,4-Dioxane) was “Solvate (1:1)”. For the same compound, the Sol. ([3]; solvent 1,4-Dioxane) was 21.3 mg/mL, the Sol. ([3]; solvent 1-Butanol) was 21.0 mg/mL and the “Resulting Form” value ([3]; solvent 1-Pentanol) was “No signal”. For the same compound, the Sol. ([3]; solvent 1-Pentanol) was 14.5 mg/mL, the “Resulting Form” value ([3]; solvent 1-Propanol) was “Solvate” and the Sol. ([3]; solvent 1-Propanol) was 15.9 mg/mL. The “Resulting Form” value ([3]; solvent 2-Butanol) was “Solvate (1:1)”, the Sol. ([3]; solvent 2-Butanol) was 14.0 mg/mL and the “Resulting Form” value ([3]; solvent 2-Ethoxyethanol) was “Amorphous”. For the same compound, the Sol. ([3]; solvent 2-Ethoxyethanol) was over 113 mg/mL, the “Resulting Form” value ([3]; solvent 2-Methoxyethanol) was “Amorphous” and the Sol. ([3]; solvent 2-Methoxyethanol) was over 114 mg/mL. For the same compound, the Sol. ([3]; solvent 2-Methy-1-propanol) was 12.2 mg/mL, the “Resulting Form” value ([3]; solvent 2-Propanol) was “Solvate(1:1)” and the Sol. ([3]; solvent 2-Propanol) was 12.9 mg/mL. The Sol. ([3]; solvent 3-Methyl-1-butanol) was 9.7 mg/mL, the “Resulting Form” value ([3]; solvent Acetone) was “Solvate” and the Sol. ([3]; solvent Acetone) was 16.3 mg/mL. It also gave a Sol. ([3]; solvent Acetonitrile) of 1.0 mg/mL, a Sol. ([3]; solvent Anisole) of 0.7 mg/mL and a Sol. ([3]; solvent Butyl acetate) of 8.1 mg/mL. For the same compound, the Sol. ([3]; solvent Chlorobenzene) was 0.4 mg/mL, the Sol. ([3]; solvent Chloroform) was 3.8 mg/mL and the Sol. ([3]; solvent Cumene) was 0.3 mg/mL. For the same compound, the Sol. ([3]; solvent Cyclohexane) was under 0.1 mg/mL, the Sol. ([3]; solvent Dichloromethane) was 0.9 mg/mL and the “Resulting Form” value ([3]; solvent Dimethylsulfoxide) was “No signal”. The Sol. ([3]; solvent Dimethylsulfoxide) was over 113 mg/mL, the “Resulting Form” value ([3]; solvent Ethanol) was “No signal” and the Sol. ([3]; solvent Ethanol) was 35.5 mg/mL. It also gave a Sol. ([3]; solvent Ethyl acetate) of 11.6 mg/mL, a Sol. ([3]; solvent Ethyl ether) of 3.5 mg/mL and a Sol. ([3]; solvent Ethyl formate) of 8.1 mg/mL. For the same compound, the Sol. ([3]; solvent Ethylene glycol) was 10.4 mg/mL, the Sol. ([3]; solvent Formamide) was 7.0 mg/mL and the “Resulting Form” value ([3]; solvent Formic acid) was “Amorphous”. It also gave a Sol. ([3]; solvent Formic acid) of over 89.4 mg/mL, a Sol. ([3]; solvent Heptane) of under 1.5 mg/mL and a Sol. ([3]; solvent Hexane) of under 0.1 mg/mL. The Sol. ([3]; solvent Isobutyl acetate) was 4.4 mg/mL, the Sol. ([3]; solvent Isopropyl acetate) was 6.2 mg/mL and the “Resulting Form” value ([3]; solvent Methanol) was “Solvate”. For the same compound, the Sol. ([3]; solvent Methanol) was 25.5 mg/mL, the “Resulting Form” value ([3]; solvent Methyl acetate) was “Solvate” and the Sol. ([3]; solvent Methyl acetate) was 9.4 mg/mL. For the same compound, the “Resulting Form” value ([3]; solvent Methyl tetrahydrofuran) was “Solvate(1:1)”, the Sol. ([3]; solvent Methyl tetrahydrofuran) was 34.8 mg/mL and the Sol. ([3]; solvent Methylbutyl ketone) was 20.0 mg/mL. The Sol. ([3]; solvent Methylcyclohexane) was under 0.1 mg/mL, the “Resulting Form” value ([3]; solvent Methylethyl ketone) was “Amorphous” and the Sol. ([3]; solvent Methylethyl ketone) was 27.3 mg/mL. The “Resulting Form” value ([3]; solvent N,N-Dimethylacetamide) was “Solvate”, the Sol. ([3]; solvent N,N-Dimethylacetamide) was over 150 mg/mL and the “Resulting Form” value ([3]; solvent N,N-Dimethylformamide) was “Solvate”. For the same compound, the Sol. ([3]; solvent N,N-Dimethylformamide) was 39.2 mg/mL, the Sol. ([3]; solvent N-Methylpyrrolidinone) was over 149 mg/mL and the Sol. ([3]; solvent Nitromethane) was 0.3 mg/mL. The Sol. ([3]; solvent Pentane) was under 0.3 mg/mL, the Sol. ([3]; solvent Propyl acetate) was 7.5 mg/mL and the “Resulting Form” value ([3]; solvent Tetrahydrofuran) was “Solvate(1:1)”. It also gave a Sol. ([3]; solvent Tetrahydrofuran) of 61.2 mg/mL, a Sol. ([3]; solvent Tetralin) of under 0.1 mg/mL and a Sol. ([3]; solvent Toluene) of 0.3 mg/mL. The “Resulting Form” value ([3]; solvent Water-IPA 1:1) was “Solvate”, the “Resulting Form” value ([3]; solvent Water-MeOH 1:1) was “Solvate” and the “Resulting Form” value ([3]; solvent Water-MeOH 1:3) was “Solvate”. For the same compound, the Sol. ([3]; solvent acetic acid) was 42.8 mg/mL, the “stability in solvent systems” value ([3]; solvent systems listed in b344 (acetonitrile to water-acetonitrile)) was “stable” and the “Resulting Form” value ([3]; solvent t-Butylmethylether) was “Amorphous”. The Sol. ([3]; solvent t-Butylmethylether) was 10.4 mg/mL, the “Resulting Form” value ([3]; solvent xylene) was “Solvate” and the Sol. ([3]; solvent xylene) was 0.3 mg/mL.
